According to paper PMC11619344 (Antimicrobial Agents and Chemotherapy, 2024):
Converted amounts (≈) assume the structure as drawn.

Experiments:
[1] = test system: K. pneumoniae ST512/KPC-31 (KPC-3 D179Y) parental clinical isolate; assay: MIC, broth microdilution; type: cell-based; conditions: Klebsiella pneumoniae
[2] = test system: ST512/KPC-31 mutant IMI 1.1; assay: MIC, broth microdilution; type: cell-based; conditions: Klebsiella pneumoniae
[3] = test system: ST512/KPC-31 mutant IMI 1.2; assay: MIC, broth microdilution; type: cell-based; conditions: Klebsiella pneumoniae
[4] = test system: ST512/KPC-31 mutant IMI 2.1; assay: MIC, broth microdilution; type: cell-based; conditions: Klebsiella pneumoniae
[5] = test system: ST512/KPC-31 mutant IMI 2.2; assay: MIC, broth microdilution; type: cell-based; conditions: Klebsiella pneumoniae
[6] = test system: ST512/KPC-31 mutant IMI 3.1; assay: MIC, broth microdilution; type: cell-based; conditions: Klebsiella pneumoniae
[7] = test system: ST512/KPC-31 mutant IMI 3.2; assay: MIC, broth microdilution; type: cell-based; conditions: Klebsiella pneumoniae
[8] = test system: K. pneumoniae ST258/KPC-35 (KPC-2 L169P) parental clinical isolate; assay: MIC, broth microdilution; type: cell-based; conditions: Klebsiella pneumoniae
[9] = test system: ST258/KPC-35 mutant IMI 1.1; assay: MIC, broth microdilution; type: cell-based; conditions: Klebsiella pneumoniae
[10] = test system: ST258/KPC-35 mutant IMI 1.2; assay: MIC, broth microdilution; type: cell-based; conditions: Klebsiella pneumoniae
[11] = test system: ST258/KPC-35 mutant IMI 2.1; assay: MIC, broth microdilution; type: cell-based; conditions: Klebsiella pneumoniae
[12] = test system: ST258/KPC-35 mutant IMI 2.2; assay: MIC, broth microdilution; type: cell-based; conditions: Klebsiella pneumoniae
[13] = test system: ST258/KPC-35 mutant IMI 3.1; assay: MIC, broth microdilution; type: cell-based; conditions: Klebsiella pneumoniae
[14] = test system: ST258/KPC-35 mutant IMI 3.2; assay: MIC, broth microdilution; type: cell-based; conditions: Klebsiella pneumoniae
[15] = test system: E. coli HB4 KPC-2 L169A; assay: MIC of recombinant strains; type: cell-based; conditions: Escherichia coli, HB4KPC2L169A; E. coli HB4 expressing KPC-2 L169A in pUCP24
Method: (§1) 14.0 (www.eucast.org/clinical_breakpoints).
(§2) Recombinant strains were selected in 10 mg/L of gentamicin-LB agar plates. The β-lactam MICs were determined for the transformants according to the above-described methodology.

[16] = test system: E. coli HB4 KPC-2 L169T; assay: MIC of recombinant strains; type: cell-based; conditions: Escherichia coli, HB4KPC2L169T; E. coli HB4 expressing KPC-2 L169T in pUCP24
Method: as §1, §2

[17] = test system: E. coli HB4 KPC-2; assay: MIC of recombinant strains; type: cell-based; conditions: Escherichia coli, HB4KPC2; E. coli HB4 expressing KPC-2 in pUCP24
Method: as §1, §2

[18] = test system: E. coli HB4 KPC-3 D179N; assay: MIC of recombinant strains; type: cell-based; conditions: Escherichia coli, HB4KPC3D179N; E. coli HB4 expressing KPC-3 D179N in pUCP24
Method: as §1, §2

[19] = test system: E. coli HB4 KPC-31 (KPC-3 D179Y); assay: MIC of recombinant strains; type: cell-based; conditions: Escherichia coli; E. coli HB4 expressing KPC-31 (KPC-3 D179Y) in pUCP24
Method: as §1, §2

[20] = test system: E. coli HB4 KPC-35 (KPC-2 L169P); assay: MIC of recombinant strains; type: cell-based; conditions: Escherichia coli; E. coli HB4 expressing KPC-35 (KPC-2 L169P) in pUCP24
Method: as §1, §2

[21] = test system: E. coli HB4 KPC-3; assay: MIC of recombinant strains; type: cell-based; conditions: Escherichia coli, HB4KPC3; E. coli HB4 expressing KPC-3 in pUCP24
Method: as §1, §2

[22] = test system: E. coli HB4; assay: MIC of recombinant strains; type: cell-based; conditions: Escherichia coli; E. coli HB4 (OmpC- and OmpF-deficient), no KPC
Method: as §1, §2

[23] = test system: K. pneumoniae ST258/KPC-35 (KPC-2 L169P); assay: Single-step mutant frequencies and mutant prevention concentrations; type: cell-based, Klebsiella pneumoniae; conditions: for Imipenem mutant frequency: MH agar, 48 h
Method: (§3) The plates were incubated for 48 h at 37°C before the frequency of resistance emergence was calculated as the ratio of the number of colony forming units (CFUs) grown on the antibiotic-containing plate and the number of CFUs on antibiotic-free plates. Mutant prevention concentrations were defined as the lowest concentration of antibiotic combination for which there were zero colonies on all agar plates ([23]). All determinations were conducted in triplicate.

[24] = test system: K. pneumoniae ST512/KPC-31 (KPC-3 D179Y); assay: as above; type: cell-based, Klebsiella pneumoniae; conditions: for Imipenem mutant frequency: MH agar, 48 h
Method: as §3

[25] = test system: K. pneumoniae ST512/KPC-31; assay: In vitro resistance dynamics (stepwise, 7 days); type: cell-based, Klebsiella pneumoniae; conditions: stepwise resistance development, MH broth, up to 64× MIC
[26] = test system: K. pneumoniae ST258/KPC-35; assay: In vitro resistance dynamics (stepwise, 7 days); type: cell-based, Klebsiella pneumoniae; conditions: stepwise resistance development, MH broth, up to 64× MIC
[27] = molecular target: T1, KPC-2 (Klebsiella pneumoniae, UniProt Q9F663); assay: Specific β-lactamase activity against imipenem, crude extract; type: biochemical; conditions: hydrolysis of imipenem by KPC-2 crude extract, 297 nm
T1 construct: made in house; host or cells: E. coli HB4 (porin-deficient), plasmid pUCP24
Method: (§4) Cultures were centrifuged at 3,500 × g, 15 min at 4°C, resuspended in 10 mL of phosphate-buffered saline (PBS; pH ~7.4) and sonicated with Ultraschall Prozessor UP 200S Hielscher (Teltow, Germany).

[28] = molecular target: T2, KPC-2 L169A (Klebsiella pneumoniae, UniProt Q9F663, L168A); assay: as above; type: biochemical; conditions: hydrolysis of imipenem by KPC-2 L169A crude extract, 297 nm
T2 construct: made in house; host or cells: E. coli HB4 (porin-deficient), plasmid pUCP24
Method: as §4

[29] = molecular target: T3, KPC-2 L169T (Klebsiella pneumoniae, UniProt Q9F663, L168T); assay: as above; type: biochemical; conditions: hydrolysis of imipenem by KPC-2 L169T crude extract, 297 nm
T3 construct: made in house; host or cells: E. coli HB4 (porin-deficient), plasmid pUCP24
Method: as §4

[30] = molecular target: T4, KPC-3 (Klebsiella pneumoniae, UniProt Q9F663, H272Y); assay: as above; type: biochemical; conditions: hydrolysis of imipenem by KPC-3 crude extract, 297 nm
T4 construct: made in house; host or cells: E. coli HB4 (porin-deficient), plasmid pUCP24
Method: as §4

[31] = molecular target: T5, KPC-3 D179N (Klebsiella pneumoniae, UniProt Q9F663, D178N/H272Y); assay: as above; type: biochemical; conditions: hydrolysis of imipenem by KPC-3 D179N crude extract, 297 nm
T5 construct: made in house; host or cells: E. coli HB4 (porin-deficient), plasmid pUCP24
Method: as §4

[32] = fold higher than the MIC of the parental strain
[33] = relebactam fixed at 4 mg/L in the combination

## C[C@@H](O)[C@H]1C(=O)N2C(C(=O)O)=C(SCCN=CN)C[C@H]12 [IMI, imipenem]
[1]
  MIC: 0.125 µg/mL (≈ 0.418 µM)
[2]
  MIC: > 256 µg/mL
[3]
  MIC: > 256 µg/mL
[4]
  MIC: > 256 µg/mL
[5]
  MIC: > 256 µg/mL
[6]
  MIC: 32 µg/mL (≈ 107 µM)
[7]
  MIC: 32 µg/mL (≈ 107 µM)
[8]
  MIC: 0.5 µg/mL (≈ 1.67 µM)
[9]
  MIC: 256 µg/mL (≈ 855 µM)
[10]
  MIC: 256 µg/mL (≈ 855 µM)
[11]
  MIC: > 256 µg/mL
[12]
  MIC: > 256 µg/mL
[13]
  MIC: 128 µg/mL (≈ 428 µM)
[14]
  MIC: 128 µg/mL (≈ 428 µM)
[15]
  MIC: 8 µg/mL
[16]
  MIC: 16 µg/mL
[17]
  MIC: 32 µg/mL
[18]
  MIC: 0.25 µg/mL
[19]
  MIC: 0.25 µg/mL
[20]
  MIC: 0.25 µg/mL
[21]
  MIC: 16 µg/mL
[22]
  MIC: 0.125 µg/mL
[23]; [32]
  Mutant prevention concentration relative to baseline MIC: 16 fold
[23]; imipenem concentration 2 mg/L
  Imipenem mutant frequency: 8.22×10^−9
[23]; imipenem concentration 4 mg/L
  Imipenem mutant frequency: 5.08×10^−10
[23]; imipenem concentration 8 mg/L
  Imipenem mutant frequency: ≤ 1.69×10^−11
[23]; [33]
  Mutant prevention concentration: 8 mg/L
[24]; [32]
  Mutant prevention concentration relative to baseline MIC: 64 fold
[24]; imipenem concentration 2 mg/L
  Imipenem mutant frequency: 1.29×10^−8
[24]; imipenem concentration 4 mg/L
  Imipenem mutant frequency: 6.10×10^−10
[24]; imipenem concentration 8 mg/L
  Imipenem mutant frequency: ≤ 2.44×10^−11
[24]; [33]
  Mutant prevention concentration: 8 mg/L
[25]
  Day on which 64× MIC values were reached: 5 days
[26]
  Day on which 64× MIC values were reached: 3 days
[27]
  Specific activity: 0.55 µmol/min/mg
[28]
  Specific activity: 0.1 µmol/min/mg
[29]
  Specific activity: 0.13 µmol/min/mg
[30]
  Specific activity: 2.5 µmol/min/mg
[31]
  Specific activity: 0.02 µmol/min/mg
